In US20080014186A1, “Hla-A24 or Hla-A2 Binding Peptides of Parathyroid Hormone-Related Protein” (GREEN PEPTIDE CO., LTD., priority 2004, published 2008):

Tests used:
[1] = test system: PBMCs of HLA-A24^+ healthy donors and prostate cancer patients; test: Assay for peptide-specific CTLs in PBMCs (IFN-γ ELISA, peptide-pulsed C1R-A24 cells); assay type: cell-based, human; settings: for IFN-γ production: C1R-A24 cells, HIV peptide background subtracted
Description: To investigate the immunogenicity of these four PTHrP peptides, the PBMCs of 10 HLA-A24^+ healthy donors and 10 HLA-A24^+ prostate cancer patients were stimulated with each of the four PTHrP peptides and were examined for their IFN-γ production in response to C1R-A24 cells, which were pre-pulsed with either a corresponding PTHrP peptide or the HIV peptide. Flu- and EBV-derived peptides were used as controls.
The assay for detection of peptide-specific CTLs in PBMCs was performed according to a previously reported method. In brief, PBMCs (1 X 10^5 cells/well) were incubated with […] of each peptide in a U-bottom-type 96-well microculture plate (Nunc, Roskilde, Denmark) at a volume of 200 μl of culture medium. The culture medium consisted of 45% RPMI-1640, 45% AIM-V medium (Gibco BRL), 10% FCS, 100 U/ml of IL-2, and 0.1 mM MEM nonessential amino acid solution (Gibco, BRL). Half of the culture medium was removed and replaced with new medium containing a corresponding peptide (20 μg/ml) every 3 days. On the 15th day of culture, the cultured cells were separated into 4 wells, and two wells were used for PTHrP peptide-pulsed C1R-A24 cells, and the other two wells were used for the HIV peptide-pulsed C1R-A24 cells. After an 18-hr incubation period, the supernatants were collected, and the level of IFN-γ was determined by ELISA (limit of sensitivity: 10 pg/ml).
The assay was carried out in quadruplicate, and the mean of two wells which show the highest significance compared to the control is shown in Table 1.
It was then determined whether PBMCs stimulated by either the PTHrP 36-44 or the PTHrP 102-111 peptide could induce prostate cancer-reactive CTLs from HLA-A24^+ healthy donors and prostate cancer patients. PBMCs from HLA-A24^+ healthy donors and prostate cancer patients were repeatedly stimulated with these PTHrP peptides. On day 15, half of the cultured cells were harvested, pooled from 4 wells, and cultured with C1R-A24 cells, which were pre-pulsed with the HIV peptide (open symbol) and the indicated PTHrP peptide (closed symbol) for 18-hr. The levels of IFN-γ in the supernatants were then determined by ELISA.

[2] = test system: IgG in plasma of HLA-A24^+ healthy donors and prostate cancer patients; test: Peptide-specific IgG in plasma by ELISA (HLA-A24-binding PTHrP peptides); parameters: species or system human; settings: for IgG reactive to the peptide in plasma: 1:100-diluted plasma
Description: The inventors previously reported that IgGs reactive to CTL epitope peptides were detected in healthy donors and patients with various types of cancers. IgGs reactive to prostate-related antigens were also detected in healthy donors and prostate cancer patients. It was examined, therefore, whether IgG reactive to the four PTHrP-derived peptides, PTHrP 36-44, PTHrP 102-111, PTHrP 25-34, and PTHrP 110-119, could be detected in the plasma of cancer patients and healthy donors.
Peptide-specific IgG levels in the plasma were measured by ELISA, as previously reported. In brief, peptide (20 μg/well)-immobilized plates were blocked with Block Ace (Yukijirushi, Tokyo, Japan) and washed with 0.05% Tween20-PBS, after which 100 μl/well of plasma sample diluted with 0.05% Tween20-Block Ace was added to the plate. After 2 hours incubation at 37° C., the plates were washed and further incubated for 2 hours with a 1:1000-diluted rabbit anti-human IgG (γ-chain-specific) (DAKO, Glostrup, Denmark). The plates were washed, and then 100 μl of 1:100-diluted goat anti-rabbit IgG-conjugated horseradish peroxidase (EnVision, DAKO) was added to each well, and the plates were then incubated at room temperature for 40 min. After the plates were washed once, 100 μl/well of tetramethyl benzidine substrate solution (KPL, Guildford, UK) was added, and the reaction was stopped by the addition of 1 M phosphoric acid. The values are shown as optical density (OD) units/ml, and responses to the HIV peptide were subtracted. IgG reactive to a corresponding PTHrP peptide was judged to be positive when the difference of the OD in 1:100-diluted plasma exceeded 0.05. The results that IgG reactive to either the PTHrP102-111 or the […] peptide was detected in 8 of 10 healthy donors and in 7 of 10 prostate cancers are shown in Table 2 hereinafter.
To confirm the specificity of IgG to the indicated PTHrP peptide, 100 μl of sample plasma from either HD #1 and Pt #6 was cultured in a plate pre-coated with either a corresponding PTHrP peptide or an irrelevant PTHrP peptide. Thereafter, the levels of IgG reactive to the PTHrP 102-111 peptide or the PTHrP 110-119 peptide in the resulting supernatants were determined by ELISA.

[3] = HLA-A24^+ prostate cancer patient #1
[4] = HLA-A24^+ prostate cancer patient #2
[5] = HLA-A24^+ prostate cancer patient #3
[6] = HLA-A24^+ prostate cancer patient #4
[7] = HLA-A24^+ prostate cancer patient #5
[8] = HLA-A24^+ prostate cancer patient #6
[9] = HLA-A24^+ prostate cancer patient #7
[10] = HLA-A24^+ prostate cancer patient #8
[11] = HLA-A24^+ prostate cancer patient #9
[12] = HLA-A24^+ prostate cancer patient #10
[13] = HLA-A24^+ prostate cancer patients

In the case of KVETYKEQPL [PTHrP 110-119], the IFN-γ production ([1]; HLA-A24^+ healthy donor #1) is reported as 394 pg/mL, the IFN-γ production ([1]; HLA-A24^+ healthy donor #2) is reported as 17 pg/mL and the IFN-γ production ([1]; HLA-A24^+ healthy donor #3) is reported as 20 pg/mL. For the same sequence, the IFN-γ production ([1]; HLA-A24^+ healthy donor #4) was 2 pg/mL, the IFN-γ production ([1]; HLA-A24^+ healthy donor #5) was 38 pg/mL and the IFN-γ production ([1]; HLA-A24^+ healthy donor #6) was 357 pg/mL. The IFN-γ production ([1]; HLA-A24^+ healthy donor #7) was 0 pg/mL, the IFN-γ production ([1]; HLA-A24^+ healthy donor #8) was 1017 pg/mL and the IFN-γ production ([1]; HLA-A24^+ healthy donor #9) was 61 pg/mL. For the same sequence, the IFN-γ production ([1]; HLA-A24^+ healthy donor #10) was 0 pg/mL, the “induced peptide-specific CTLs, number of donors” value ([1]; HLA-A24^+ healthy donors) was 3 of 10 and the “Total (donors with significant peptide-specific IFN-γ production / donors tested)” value ([1]; HLA-A24^+ healthy donors, p < 0.05) was 3/10. It also gave an IFN-γ production [1, 3] of 0 pg/mL, an IFN-γ production [1, 4] of 9 pg/mL and an IFN-γ production [1, 5] of 38 pg/mL. For the same sequence, the IFN-γ production [1, 6] was 19 pg/mL, the IFN-γ production [1, 7] was 10 pg/mL and the IFN-γ production [1, 8] was 14 pg/mL. The IFN-γ production [1, 9] was 0 pg/mL, the IFN-γ production [1, 10] was 23 pg/mL and the IFN-γ production [1, 11] was 0 pg/mL. For the same sequence, the IFN-γ production [1, 12] was 118 pg/mL, the “induced peptide-specific CTLs (peptide-specific IFN-γ production), number of patients” value [1, 13] was 1 of 10 and the “Total (patients with significant peptide-specific IFN-γ production / patients tested)” value ([1]; HLA-A24^+ prostate cancer patients, p < 0.05) was 1/10. The “IgG reactive to the peptide in plasma” value ([2]; HLA-A24^+ healthy donor #1) was “+ (IgG reactive to a corresponding peptide was judged to be positive when the difference of the OD in 1:100-diluted plasma exceeded 0.05.)”, the “IgG reactive to the peptide in plasma” value ([2]; HLA-A24^+ healthy donor #2) was “+ (IgG reactive to a corresponding peptide was judged to be positive when the difference of the OD in 1:100-diluted plasma exceeded 0.05.)” and the “IgG reactive to the peptide in plasma” value ([2]; HLA-A24^+ healthy donor #3) was “+ (IgG reactive to a corresponding peptide was judged to be positive when the difference of the OD in 1:100-diluted plasma exceeded 0.05.)”. For the same sequence, the “IgG reactive to the peptide in plasma” value ([2]; HLA-A24^+ healthy donor #4) was “− (IgG reactive to a corresponding peptide was judged to be positive when the difference of the OD in 1:100-diluted plasma exceeded 0.05.)”, the “IgG reactive to the peptide in plasma” value ([2]; HLA-A24^+ healthy donor #5) was “+ (IgG reactive to a corresponding peptide was judged to be positive when the difference of the OD in 1:100-diluted plasma exceeded 0.05.)” and the “IgG reactive to the peptide in plasma” value ([2]; HLA-A24^+ healthy donor #6) was “− (IgG reactive to a corresponding peptide was judged to be positive when the difference of the OD in 1:100-diluted plasma exceeded 0.05.)”. The “IgG reactive to the peptide in plasma” value ([2]; HLA-A24^+ healthy donor #7) was “+ (IgG reactive to a corresponding peptide was judged to be positive when the difference of the OD in 1:100-diluted plasma exceeded 0.05.)”, the “IgG reactive to the peptide in plasma” value ([2]; HLA-A24^+ healthy donor #8) was “+ (IgG reactive to a corresponding peptide was judged to be positive when the difference of the OD in 1:100-diluted plasma exceeded 0.05.)” and the “IgG reactive to the peptide in plasma” value ([2]; HLA-A24^+ healthy donor #9) was “+ (IgG reactive to a corresponding peptide was judged to be positive when the difference of the OD in 1:100-diluted plasma exceeded 0.05.)”. For the same sequence, the “IgG reactive to the peptide in plasma” value ([2]; HLA-A24^+ healthy donor #10) was “+ (IgG reactive to a corresponding peptide was judged to be positive when the difference of the OD in 1:100-diluted plasma exceeded 0.05.)”, the “IgG reactive to the peptide detected, number of donors” value ([2]; HLA-A24^+ healthy donors) was 8 of 10 and the “Total (IgG-positive donors / donors tested)” value ([2]; HLA-A24^+ healthy donors) was 8/10. For the same sequence, the “IgG reactive to the peptide in plasma” value [2, 3] was “+ (IgG reactive to a corresponding peptide was judged to be positive when the difference of the OD in 1:100-diluted plasma exceeded 0.05.)”, the “IgG reactive to the peptide in plasma” value [2, 4] was “+ (IgG reactive to a corresponding peptide was judged to be positive when the difference of the OD in 1:100-diluted plasma exceeded 0.05.)” and the “IgG reactive to the peptide in plasma” value [2, 5] was “− (IgG reactive to a corresponding peptide was judged to be positive when the difference of the OD in 1:100-diluted plasma exceeded 0.05.)”. The “IgG reactive to the peptide in plasma” value [2, 6] was “− (IgG reactive to a corresponding peptide was judged to be positive when the difference of the OD in 1:100-diluted plasma exceeded 0.05.)”, the “IgG reactive to the peptide in plasma” value [2, 7] was “− (IgG reactive to a corresponding peptide was judged to be positive when the difference of the OD in 1:100-diluted plasma exceeded 0.05.)” and the “IgG reactive to the peptide in plasma” value [2, 8] was “+ (IgG reactive to a corresponding peptide was judged to be positive when the difference of the OD in 1:100-diluted plasma exceeded 0.05.)”. The “IgG reactive to the peptide in plasma” value [2, 9] was “+ (IgG reactive to a corresponding peptide was judged to be positive when the difference of the OD in 1:100-diluted plasma exceeded 0.05.)”, the “IgG reactive to the peptide in plasma” value [2, 10] was “+ (IgG reactive to a corresponding peptide was judged to be positive when the difference of the OD in 1:100-diluted plasma exceeded 0.05.)” and the “IgG reactive to the peptide in plasma” value [2, 11] was “+ (IgG reactive to a corresponding peptide was judged to be positive when the difference of the OD in 1:100-diluted plasma exceeded 0.05.)”. For the same sequence, the “IgG reactive to the peptide in plasma” value [2, 12] was “+ (IgG reactive to a corresponding peptide was judged to be positive when the difference of the OD in 1:100-diluted plasma exceeded 0.05.)”, the “IgG reactive to the peptide detected, number of patients” value [2, 13] was 7 of 10 and the “Total (IgG-positive patients / patients tested)” value [2, 13] was 7/10. For the same sequence, the “Peptide-specific absorption of IgG (level after culturing plasma in corresponding peptide-coated wells)” value ([2]; plasma from HD #1 and Pt #6, FIG. 3B) was “significantly diminished”.
